From ChEMBL document CHEMBL3102716, “High-throughput virtual screening identifies novel N'-(1-phenylethylidene)-benzohydrazides as potent, specific, and reversible LSD1 inhibitors” (J Med Chem, 2013)
Activity calls are given as the source filed them. The calls are words filed in the database; no cut-off is given here.

Columns and labels:
[1] = test system: T47D; assay: cells; conditions: Homo sapiens, 96 h
[2] = target: T1, Lysine-specific histone demethylase 1A (Homo sapiens, UniProt O60341)
Description: Inhibition of LSD1 (unknown origin) using dimethyl K4 peptide as substrate assessed as resorufin level by spectrophotometric analysis

[3] = target: T1, Lysine-specific histone demethylase 1A; assay: Inhibition of human recombinant LSD1 expressed in Escherichia coli BL21(DE3) using H3K4me2 as substrate by chemiluminescence assay
[4] = target: T1, Lysine-specific histone demethylase 1A; assay: Binding affinity to recombinant full-length His6-tagged LSD1 (unknown origin) assessed as Boltzmann melting temperature at 15 uM after 30 mins by differential scanning fluorimetry
[5] = target: T1, Lysine-specific histone demethylase 1A; assay: Binding affinity to recombinant full-length His6-tagged LSD1 (unknown origin) assessed as second derivative melting temperature at 15 uM after 30 mins by differential scanning fluorimetry (reference value: […] +/- 1.08 degC)
[6] = target: T1, Lysine-specific histone demethylase 1A; assay: Reversible inhibition of full-length 6His-tagged LSD1 (unknown origin) at 10XIC50 after 1 hr relative to control
[7] = target: T1, Lysine-specific histone demethylase 1A; assay: Reversible inhibition of full-length 6His-tagged LSD1 (unknown origin) at 10XIC50 preincubated for 1 hr followed by 100 fold dilution relative to control
[8] = target: T1, Lysine-specific histone demethylase 1A; assay: Binding affinity to recombinant full-length His6-tagged LSD1 (unknown origin) assessed as first derivative melting temperature at 15 uM after 30 mins by differential scanning fluorimetry
[9] = target: T1, Lysine-specific histone demethylase 1A; assay: Inhibition of GST-tagged human recombinant LSD1 using dimethylated H3K4 peptide as substrate by mass spectrometric analysis
[10] = target: T2, Amine oxidase [flavin-containing] A (Homo sapiens, UniProt P21397)
T2 sequence (P21397 whole entry): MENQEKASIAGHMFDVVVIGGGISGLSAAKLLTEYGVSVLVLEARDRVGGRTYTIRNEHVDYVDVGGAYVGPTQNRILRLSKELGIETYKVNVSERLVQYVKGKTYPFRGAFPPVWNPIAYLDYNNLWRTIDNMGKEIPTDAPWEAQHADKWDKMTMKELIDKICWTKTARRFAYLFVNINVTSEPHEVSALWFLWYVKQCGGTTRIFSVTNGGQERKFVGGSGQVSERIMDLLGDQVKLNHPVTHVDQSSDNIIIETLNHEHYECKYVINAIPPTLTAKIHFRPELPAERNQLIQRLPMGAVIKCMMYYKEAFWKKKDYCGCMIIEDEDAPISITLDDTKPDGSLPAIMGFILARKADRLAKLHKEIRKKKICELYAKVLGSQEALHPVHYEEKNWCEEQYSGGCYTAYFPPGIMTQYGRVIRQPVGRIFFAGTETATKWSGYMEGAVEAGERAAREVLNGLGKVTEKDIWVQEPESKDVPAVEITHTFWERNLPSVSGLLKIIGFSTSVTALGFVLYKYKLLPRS
Description: Inhibition of MAO-A (unknown origin)

[11] = target: Voltage-gated inwardly rectifying potassium channel KCNH2 (Homo sapiens, UniProt Q12809); assay: Inhibition of human ERG
Sequence of Voltage-gated inwardly rectifying potassium channel KCNH2 (Q12809 whole entry): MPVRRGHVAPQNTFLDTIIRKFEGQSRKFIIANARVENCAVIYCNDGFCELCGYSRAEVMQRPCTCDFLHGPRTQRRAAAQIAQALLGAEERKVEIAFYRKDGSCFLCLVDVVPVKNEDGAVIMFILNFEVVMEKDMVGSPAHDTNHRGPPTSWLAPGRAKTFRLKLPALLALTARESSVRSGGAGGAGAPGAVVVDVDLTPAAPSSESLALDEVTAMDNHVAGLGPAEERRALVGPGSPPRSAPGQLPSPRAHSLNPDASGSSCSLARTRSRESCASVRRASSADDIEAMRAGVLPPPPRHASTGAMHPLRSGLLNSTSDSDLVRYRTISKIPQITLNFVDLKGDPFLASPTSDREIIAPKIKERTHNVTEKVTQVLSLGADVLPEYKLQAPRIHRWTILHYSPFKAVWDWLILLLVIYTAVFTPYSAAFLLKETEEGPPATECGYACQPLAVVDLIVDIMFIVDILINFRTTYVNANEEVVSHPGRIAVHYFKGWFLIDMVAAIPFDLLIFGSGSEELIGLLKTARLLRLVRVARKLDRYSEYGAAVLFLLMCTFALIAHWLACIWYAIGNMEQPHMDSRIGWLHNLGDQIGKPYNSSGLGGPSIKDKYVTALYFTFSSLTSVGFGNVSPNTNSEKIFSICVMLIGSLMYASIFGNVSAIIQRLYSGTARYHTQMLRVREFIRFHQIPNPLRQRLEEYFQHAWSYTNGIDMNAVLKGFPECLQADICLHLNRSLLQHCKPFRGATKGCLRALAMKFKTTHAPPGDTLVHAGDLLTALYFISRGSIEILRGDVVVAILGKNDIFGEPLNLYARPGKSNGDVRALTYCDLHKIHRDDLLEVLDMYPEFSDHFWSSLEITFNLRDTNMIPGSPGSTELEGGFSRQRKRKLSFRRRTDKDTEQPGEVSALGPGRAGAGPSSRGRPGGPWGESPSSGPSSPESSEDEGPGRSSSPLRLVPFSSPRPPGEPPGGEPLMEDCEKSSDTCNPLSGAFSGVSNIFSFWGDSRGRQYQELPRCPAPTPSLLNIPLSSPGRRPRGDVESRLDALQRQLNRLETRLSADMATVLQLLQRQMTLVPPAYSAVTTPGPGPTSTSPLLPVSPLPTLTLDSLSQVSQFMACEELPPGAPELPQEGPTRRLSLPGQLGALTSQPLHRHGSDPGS

[12] = target: Cytochrome P450 2D6 (Homo sapiens, UniProt P10635); assay: Inhibition of CYP2D6 (unknown origin); format: ADME
Sequence of Cytochrome P450 2D6 (P10635 whole entry): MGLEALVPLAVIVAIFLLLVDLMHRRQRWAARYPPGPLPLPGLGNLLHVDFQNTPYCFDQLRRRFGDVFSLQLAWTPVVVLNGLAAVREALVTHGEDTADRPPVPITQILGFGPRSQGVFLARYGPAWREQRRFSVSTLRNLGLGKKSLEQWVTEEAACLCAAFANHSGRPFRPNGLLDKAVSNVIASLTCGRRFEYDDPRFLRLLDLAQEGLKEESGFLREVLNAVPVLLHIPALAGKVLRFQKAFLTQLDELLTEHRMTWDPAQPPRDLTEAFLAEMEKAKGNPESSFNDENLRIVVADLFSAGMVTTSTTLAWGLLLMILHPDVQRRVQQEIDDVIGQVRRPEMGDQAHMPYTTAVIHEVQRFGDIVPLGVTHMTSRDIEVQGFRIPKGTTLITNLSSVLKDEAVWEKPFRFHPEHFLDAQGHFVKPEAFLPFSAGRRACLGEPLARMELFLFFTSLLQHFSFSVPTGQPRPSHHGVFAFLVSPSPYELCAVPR

[13] = target: T1, Lysine-specific histone demethylase 1A; assay: Non-competitive inhibition of recombinant full-length His6-tagged LSD1 (unknown origin) using dimethylated K4N-terminal H3 peptide as substrate at 1 nM by Michaelis-Menten plot analysis
[14] = target: T1, Lysine-specific histone demethylase 1A; assay: Non-competitive inhibition of recombinant full-length His6-tagged LSD1 (unknown origin) using dimethylated K4N-terminal H3 peptide as substrate at 30 nM by Michaelis-Menten plot analysis
[15] = target: Cytochrome P450 3A4 (Homo sapiens, UniProt P08684); assay: Inhibition of CYP3A4 (unknown origin); format: ADME
Sequence of Cytochrome P450 3A4 (P08684 whole entry): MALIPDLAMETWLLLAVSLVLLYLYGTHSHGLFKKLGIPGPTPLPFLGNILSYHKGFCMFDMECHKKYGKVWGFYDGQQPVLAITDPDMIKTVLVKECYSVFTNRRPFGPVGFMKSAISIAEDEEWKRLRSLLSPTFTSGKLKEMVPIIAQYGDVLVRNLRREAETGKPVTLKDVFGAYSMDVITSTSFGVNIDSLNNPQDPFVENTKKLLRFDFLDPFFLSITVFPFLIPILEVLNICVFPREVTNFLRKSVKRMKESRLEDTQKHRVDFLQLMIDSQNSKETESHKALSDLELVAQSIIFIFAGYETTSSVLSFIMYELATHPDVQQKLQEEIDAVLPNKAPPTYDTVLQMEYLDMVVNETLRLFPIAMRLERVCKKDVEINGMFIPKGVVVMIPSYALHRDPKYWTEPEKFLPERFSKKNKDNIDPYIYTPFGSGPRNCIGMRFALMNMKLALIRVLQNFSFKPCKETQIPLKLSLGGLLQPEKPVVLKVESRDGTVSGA

[16] = target: Cytochrome P450 2C19 (Homo sapiens, UniProt P33261); assay: Inhibition of CYP2C19 (unknown origin); format: ADME
Sequence of Cytochrome P450 2C19 (P33261 whole entry): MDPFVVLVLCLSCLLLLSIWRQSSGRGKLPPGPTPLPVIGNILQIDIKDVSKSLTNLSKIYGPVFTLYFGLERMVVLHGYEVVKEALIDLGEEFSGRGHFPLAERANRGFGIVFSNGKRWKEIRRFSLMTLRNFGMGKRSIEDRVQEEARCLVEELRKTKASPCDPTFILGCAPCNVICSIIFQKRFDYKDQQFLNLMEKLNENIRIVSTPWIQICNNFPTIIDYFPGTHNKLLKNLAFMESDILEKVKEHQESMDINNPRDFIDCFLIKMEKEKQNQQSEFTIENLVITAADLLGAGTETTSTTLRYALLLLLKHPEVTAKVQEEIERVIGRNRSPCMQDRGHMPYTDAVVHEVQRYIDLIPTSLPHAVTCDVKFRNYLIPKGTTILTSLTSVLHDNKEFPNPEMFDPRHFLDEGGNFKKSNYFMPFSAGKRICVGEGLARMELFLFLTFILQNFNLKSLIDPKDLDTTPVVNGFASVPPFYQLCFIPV

[17] = target: T3, Amine oxidase [flavin-containing] B (Homo sapiens, UniProt P27338)
T3 sequence (P27338 whole entry): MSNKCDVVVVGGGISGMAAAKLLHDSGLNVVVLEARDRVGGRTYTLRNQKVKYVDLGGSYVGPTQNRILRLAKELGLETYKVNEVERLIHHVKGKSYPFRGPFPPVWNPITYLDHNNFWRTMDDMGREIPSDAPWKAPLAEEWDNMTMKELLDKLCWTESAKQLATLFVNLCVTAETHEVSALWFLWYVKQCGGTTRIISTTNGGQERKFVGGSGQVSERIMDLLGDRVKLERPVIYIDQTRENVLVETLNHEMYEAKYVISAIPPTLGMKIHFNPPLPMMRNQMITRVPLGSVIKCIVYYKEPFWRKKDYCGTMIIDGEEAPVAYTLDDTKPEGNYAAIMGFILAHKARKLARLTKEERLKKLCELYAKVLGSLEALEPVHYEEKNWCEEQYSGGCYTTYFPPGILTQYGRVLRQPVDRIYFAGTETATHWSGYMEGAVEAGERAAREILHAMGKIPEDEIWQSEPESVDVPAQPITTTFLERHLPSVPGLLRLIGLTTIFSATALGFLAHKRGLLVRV
Description: Inhibition of MAO-B (unknown origin)

[18] = target: T1, Lysine-specific histone demethylase 1A; assay: Non-competitive inhibition of recombinant full-length His6-tagged LSD1 (unknown origin) using dimethylated K4N-terminal H3 peptide as substrate at 100 nM by Michaelis-Menten plot analysis
[19] = target: T1, Lysine-specific histone demethylase 1A; assay: Non-competitive inhibition of recombinant full-length His6-tagged LSD1 (unknown origin) using dimethylated K4N-terminal H3 peptide as substrate at 10 nM by Michaelis-Menten plot analysis
[20] = target: T1, Lysine-specific histone demethylase 1A; assay: Non-competitive inhibition of recombinant full-length His6-tagged LSD1 (unknown origin) using dimethylated K4N-terminal H3 peptide as substrate at 3 nM by Michaelis-Menten plot analysis
[21] = Inhibition of D-lactate dehydrogenase (unknown origin); parameters: species or system Homo sapiens
[22] = target: Cytochrome P450 2C9 (Homo sapiens, UniProt P11712); assay: Inhibition of CYP2C9 (unknown origin); format: ADME
Sequence of Cytochrome P450 2C9 (P11712 whole entry): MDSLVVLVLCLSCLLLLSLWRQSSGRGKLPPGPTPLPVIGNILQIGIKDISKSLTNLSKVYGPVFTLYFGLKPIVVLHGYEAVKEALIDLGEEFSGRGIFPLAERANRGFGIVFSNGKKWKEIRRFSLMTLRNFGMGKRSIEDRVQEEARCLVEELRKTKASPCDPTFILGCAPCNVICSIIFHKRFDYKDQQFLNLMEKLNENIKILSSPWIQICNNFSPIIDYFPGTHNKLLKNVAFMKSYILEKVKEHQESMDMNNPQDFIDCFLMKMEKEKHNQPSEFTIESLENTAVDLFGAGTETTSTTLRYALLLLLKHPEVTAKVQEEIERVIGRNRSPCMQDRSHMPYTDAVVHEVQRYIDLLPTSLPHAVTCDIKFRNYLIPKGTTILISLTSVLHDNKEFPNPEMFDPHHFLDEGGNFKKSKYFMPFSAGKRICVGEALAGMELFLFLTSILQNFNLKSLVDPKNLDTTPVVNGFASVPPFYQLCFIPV

[23] = target: T4, Cytochrome P450 1A2 (Homo sapiens, UniProt P05177); assay: Inhibition of CYP1A2 (unknown origin); format: ADME
T4 sequence (P05177 whole entry): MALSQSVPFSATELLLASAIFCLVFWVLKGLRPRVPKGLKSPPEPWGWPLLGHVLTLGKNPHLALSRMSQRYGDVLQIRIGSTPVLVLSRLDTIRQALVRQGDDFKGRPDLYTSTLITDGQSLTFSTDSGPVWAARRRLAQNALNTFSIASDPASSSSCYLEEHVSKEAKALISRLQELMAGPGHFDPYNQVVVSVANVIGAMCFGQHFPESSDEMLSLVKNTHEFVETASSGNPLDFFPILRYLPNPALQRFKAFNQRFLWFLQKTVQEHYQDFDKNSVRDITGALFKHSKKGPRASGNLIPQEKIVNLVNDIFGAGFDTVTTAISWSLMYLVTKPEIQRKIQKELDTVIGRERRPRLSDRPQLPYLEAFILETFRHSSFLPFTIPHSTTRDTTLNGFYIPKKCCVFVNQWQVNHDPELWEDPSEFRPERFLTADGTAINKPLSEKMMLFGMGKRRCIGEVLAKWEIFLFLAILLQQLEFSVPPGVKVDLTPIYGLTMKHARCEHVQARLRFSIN

[24] = Inhibition of glucose oxidase (unknown origin)

SMILES	IC50 [1] [µM]	IC50 [2] [µM]	further results
C/C(=N\NC(=O)c1cccc(S(=O)(=O)N2CCOCC2)c1)c1cccc(Cl)c1F	> 10	> 3	
CCNCCCNC/C=C\CNCCCNCC			IC50 [3]: 0.25 µM
O=C(NNC(=O)c1cc(S(=O)(=O)N2CCOCC2)ccc1F)c1cccc(Cl)c1	> 10	> 3	
CCN(CC)c1cccc(C(=O)N/N=C(\C)c2cccc(C)c2)c1	> 10	> 3	
C/C(=N\NC(=O)c1cccc(S(=O)(=O)N2CCOCC2)c1)c1ccnc(Cl)c1	> 10	> 3	
C/C(=N\NC(=O)c1cccc(S(=O)(=O)N2CCOCC2)c1)c1cc(Cl)ccc1Cl	1.7	> 3	Tm [4]: 43.3 °C; Tm [5]: 46.7 °C; inhibition [6]: inactive; inhibition [7]: inactive; Tm [8]: 40.8 °C
COC(=O)c1cc(CN2CCN(C(=N)N)CC2)cc(C(=O)N2CCN(C(=O)c3ccc(C=N)cc3)CC2)c1			IC50 [9]: 5.2 µM
CC/C(=N/NC(=O)c1cccc(S(=O)(=O)N2CCOCC2)c1)c1cc(Cl)ccc1O	0.352	> 3	
C/C(=N\NC(=O)c1cccc(S(=O)(=O)N2CCOCC2)c1)c1cccc2ccccc12	> 10		
C/C(=N\NC(=O)c1cccc(S(=O)(=O)N2CCOCC2)c1)c1cc(Cl)ccc1O			IC50 [10]: > 300 µM; IC50 [11]: > 10 µM; IC50 [12]: > 10 µM; Ki [13]: 0.0135 µM; Ki [14]: 0.0352 µM; IC50 [15]: 2.61 µM; IC50 [16]: 9.76 µM; IC50 [17]: > 300 µM; Ki [18]: 0.0547 µM; Tm [4]: 44.6 °C; Ki [19]: 0.0319 µM; Ki [20]: 0.0353 µM; IC50 [21]: > 10 µM; IC50 [22]: 8.04 µM; inhibition [7]: 65.7%; IC50 [23]: > 10 µM; IC50 [24]: > 10 µM; Tm [8]: 45.4 °C
C/C(=N\NC(=O)c1ccccc1)c1c(O)cccc1O	> 10	> 3	
C/C(=N/NC(=O)c1ccc(Cl)c(Br)c1)c1cc(Cl)ccc1O	0.565	> 3	
COc1ccc(Cl)cc1C(=O)NNC(=O)c1cc(S(=O)(=O)N2CCOCC2)ccc1F	> 10	> 3	
C/C(=N/NC(=O)c1cncc(Cl)c1)c1cc(Cl)ccc1O	0.616	> 3	
C/C(=N/NC(=O)c1cnc(Cl)c(Br)c1)c1cc(Cl)ccc1O	0.27	> 3	
C/C(=N/NC(=O)c1cccc(S(=O)(=O)N2CCOCC2)c1)c1cccnc1		> 3	
C/C(=N/NC(=O)c1cccc(S(=O)(=O)N(C)C)c1)c1cc(Cl)ccc1O	1.38		
